Data from patent US10314841B2, “Substituted pyrazoles as IRAK inhibitors” (Merck Patent GmbH, priority 2014, dated 2019).

Experiments:
[1] = target: T1, IRAK1 (His-TEV-IRAK1 (194-712)) (Homo sapiens, UniProt P51617); test: IRAK1 enzymatic assay; assay type: biochemical; conditions: human recombinant His-TEV-IRAK1, ATP 1 μM, 3 hours at 30° C., FlashPlate
T1 construct: His-TEV-IRAK1 (194-712); His (N); TEV cleavage site (N)
Protocol: IRAK1 Enzymatic Assay IRAK1 is a human purified recombinant enzyme (His-TEV-IRAK1 (194-712)). In this assay, IRAK-1 hydrolyses ATP and autophosphorylates. Measurement of IRAK-1 inhibition was performed in streptavidin coated 384 well FlashPlate (PerkinElmer #SM[…]). His-TEV-IRAK-1 (15 ng/well), ATP (1 μ[…]]ATP 0.25 μCi/well) and compounds in DMSO (range of concentrations from 20 μM to 1 nM) or controls (2% DMSO) were incubated for 3 hours at 30° C. in assay buffer: Hepes pH7.0 50 mM, Fatty acid-free BSA 0.1%, Dithiothreitol DTT 2 mM, MgCl2 10 mM, EGTA 0.5 mM, Triton-X-100 0.01%. Kinase reaction was stopped by addition of EDTA. Supernatant was discarded, plates were washed three times with 150 mM NaCl and radioactivity was then measured in a Microbeta Trilux reader.

IRAK4 (His-TEV-IRAK4) = target: T2, IRAK4 (His-TEV-IRAK4) (Homo sapiens, UniProt Q9NWZ3); test: IRAK4 enzymatic assay; assay type: biochemical; conditions: human recombinant His-TEV-IRAK4, ATP 2 μM, STK1-biotin peptide 300 nM, 3 hours at 30° C., FlashPlate
T2 construct: His (N); TEV cleavage site (N)
T2 sequence (Q9NWZ3 1-460): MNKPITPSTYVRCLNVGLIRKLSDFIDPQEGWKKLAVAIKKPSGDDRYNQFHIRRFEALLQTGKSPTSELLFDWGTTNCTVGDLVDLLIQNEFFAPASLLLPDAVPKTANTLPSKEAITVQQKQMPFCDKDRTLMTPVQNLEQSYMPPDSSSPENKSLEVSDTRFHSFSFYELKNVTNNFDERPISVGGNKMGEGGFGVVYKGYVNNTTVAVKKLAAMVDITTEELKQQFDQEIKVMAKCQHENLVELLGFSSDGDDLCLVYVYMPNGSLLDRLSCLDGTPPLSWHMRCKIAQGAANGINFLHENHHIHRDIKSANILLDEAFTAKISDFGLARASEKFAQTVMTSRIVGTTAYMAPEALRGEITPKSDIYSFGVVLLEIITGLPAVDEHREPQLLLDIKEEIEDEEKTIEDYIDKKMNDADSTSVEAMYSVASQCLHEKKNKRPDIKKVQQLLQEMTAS
Protocol: IRAK4 Enzymatic Assay IRAK4 is a human purified recombinant enzyme (His-TEV-[…] (194-712). IRAK4 hydrolyses ATP, autophosphorylates and phosphorylates a Serine/Threonine generic peptidic substrate (STK: 61 ST1BLC from CisBio International based in Bagnols/Cèze FR). Measurement of IRAK-4 inhibition was performed in streptavidin coated 384 well FlashPlate (PerkinElmer #SM[…]). His-TEV-IRAK4 (20 ng/well), ATP (2 μM, [^33P]ATP 0.25 μCi/well), STK1-biotin peptide (300 nM) and compounds in DMSO (range of concentrations from 20 μM to 1 nM) or controls (2% DMSO) were incubated for 3 hours at 30° C. in assay buffer: Hepes pH7.0 50 mM, Fatty acid-free BSA 0.1%, Dithiothreitol DTT 2 mM, MgCl2 10 mM, EGTA 0.5 mM, Tween-20 0.01%, MnCl2 5 mM. Kinase reaction was stopped by addition of EDTA. Supernatant was discarded, plates were washed three times with 150 mM NaCl and radioactivity was then measured in a Microbeta Trilux reader.

[2] = system: TLR7 induced IL-6 secretion in human PBMC's; test: TLR7 induced IL-6 in human PBMC's; assay type: cell-based; conditions: human PBMC, TLR7 specific ligand 2 uM overnight, IL-6 Alpha LISA; read-out: TLR7 induced IL-6 secretion in hPBMC's (IC50)
Protocol: TLR7 Induced IL-6 in Human PBMC's Human PBMC assay was used as one of the functional assays to monitor the activity of IRAK1 and IRAK4 small molecule inhibitors on TLR7 induced IL-6 secretion in human mononuclear cells (PBMC's). Human PBMCs were prepared from buffy coats (whole blood enriched with leukocytes and platelets) obtained from healthy volunteers used either fresh or frozen are plated in assay media (RPMI+2% P/S/L-glu+10% HI-FBS) and pre-treated with compounds in DMSO/media (range of concentrations from 25 uM to 0.4 nM) or controls (0.25% DMSO) for 30 minutes at 37° C. in assay media. Following pre-treatment with IRAK1 and IRAK4 inhibitors, PBMC's were stimulated with TLR7 specific ligand (2 uM) overnight (16-18 hrs) at 37° C. After incubation supernatant was transferred to 384 well PE AlphaPlate-384 (6005350) and IL-6 is quantified using Perkin Elmer IL-6 Alpha LISA kit (A[…]). Plates were read on an Envision® plate reader with Alpha Technology®.

T1 sequence (P51617 194-712): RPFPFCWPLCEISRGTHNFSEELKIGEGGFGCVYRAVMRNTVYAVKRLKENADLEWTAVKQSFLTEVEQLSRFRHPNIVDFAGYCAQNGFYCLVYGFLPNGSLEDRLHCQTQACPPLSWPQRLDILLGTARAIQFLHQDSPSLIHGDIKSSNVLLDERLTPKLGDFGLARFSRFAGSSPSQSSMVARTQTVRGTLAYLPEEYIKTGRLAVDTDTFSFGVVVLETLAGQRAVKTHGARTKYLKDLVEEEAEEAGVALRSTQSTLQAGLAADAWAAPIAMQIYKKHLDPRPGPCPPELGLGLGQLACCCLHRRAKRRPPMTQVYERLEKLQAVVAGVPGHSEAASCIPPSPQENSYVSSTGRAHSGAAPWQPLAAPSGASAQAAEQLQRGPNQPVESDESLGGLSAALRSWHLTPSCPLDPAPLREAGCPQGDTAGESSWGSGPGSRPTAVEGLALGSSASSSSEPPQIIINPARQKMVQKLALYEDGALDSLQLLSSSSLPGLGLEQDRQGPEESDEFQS

SMILES | IC50 [1] | IC50 (IRAK4 (His-TEV-IRAK4)) | IC50 [2]
C=CC(=O)N[C@H]1CCC[C@H](n2cc(-c3cnc(-c4cccc(-c5cnn(C)c5)c4)nc3)cn2)C1 [Compound 38, N-[(1S,3S)-3-(4-{2-[3-(1-Methyl-1H-pyrazol-4-yl)-phenyl]-pyrimidin-5-yl}-pyrazol-1-yl)-cyclohexyl]-acrylamide] | 100 to 1000 nM | < 100 nM | 100 to 1000 nM
Cn1nccc1-c1cccc(-c2ncc(-c3cnn([C@H]4CC[C@]5(CCC(=O)N5C)CC4)c3)cn2)c1 [Compound 43, 1-Methyl-8-((S)-4-{2-[3-(2-methyl-2H-pyrazol-3-yl)-phenyl]-pyrimidin-5-yl}-pyrazol-1-yl)-1-aza-spiro[4.5]decan-2-one] | 1000 to 20000 nM | < 100 nM | 1000 to 20000 nM

More lines, main results first:

IC50 [1] | IC50 (IRAK4 (His-TEV-IRAK4)) | SMILES | IC50 [2]
100 to 1000 nM | < 100 nM | Cn1cc(-c2cccc(-c3ncc(-c4cnn(C5CCN(C#N)CC5)c4)cn3)c2)cn1 [Compound 45, 4-(4-{2-[3-(1-Methyl-1H-pyrazol-4-yl)-phenyl]-pyrimidin-5-yl}-pyrazol-1-yl)-piperidine-1-carbonitrile] | 100 to 1000 nM
< 100 nM | < 100 nM | Cn1cc(-c2cccc(-c3ncc(-c4cnn(C5CCN(C(=O)/C(C#N)=C\C6CC6)CC5)c4)cn3)c2)cn1 [Compound 46, (Z)-3-Cyclopropyl-2-[4-(4-{2-[3-(1-methyl-1H-pyrazol-4-yl)-phenyl]-pyrimidin-5-yl}-pyrazol-1-yl)-piperidine-1-carbonyl]-acrylonitrile] | 100 to 1000 nM
< 100 nM | < 100 nM | CC#CC(=O)N1CCC(n2cc(-c3cnc(-c4cccc(-c5cnn(C)c5)c4)nc3)cn2)CC1 [Compound 48, 1-[4-(4-{2-[3-(1-Methyl-1H-pyrazol-4-yl)-phenyl]-pyrimidin-5-yl}-pyrazol-1-yl)-piperidin-1-yl]-but-2-yn-1-one] | 1000 to 20000 nM
